This passage reports IC50 results from patent US20250361230A1, “LATS Inhibitors and Uses Thereof” (The USA, as Represented by the Secretary, Dept. of Heath …, priority 2022, published 2025).

A word on the IC50: it is the point on the concentration scale where inhibition reaches its midpoint.

This assay deals with T1, LATS1 Kinase-NanoLuc fusion in HEK-293 cells (Homo sapiens, UniProt O95835).
T1 construct: host or cells: HEK-293
T1 sequence (O95835 1-1130): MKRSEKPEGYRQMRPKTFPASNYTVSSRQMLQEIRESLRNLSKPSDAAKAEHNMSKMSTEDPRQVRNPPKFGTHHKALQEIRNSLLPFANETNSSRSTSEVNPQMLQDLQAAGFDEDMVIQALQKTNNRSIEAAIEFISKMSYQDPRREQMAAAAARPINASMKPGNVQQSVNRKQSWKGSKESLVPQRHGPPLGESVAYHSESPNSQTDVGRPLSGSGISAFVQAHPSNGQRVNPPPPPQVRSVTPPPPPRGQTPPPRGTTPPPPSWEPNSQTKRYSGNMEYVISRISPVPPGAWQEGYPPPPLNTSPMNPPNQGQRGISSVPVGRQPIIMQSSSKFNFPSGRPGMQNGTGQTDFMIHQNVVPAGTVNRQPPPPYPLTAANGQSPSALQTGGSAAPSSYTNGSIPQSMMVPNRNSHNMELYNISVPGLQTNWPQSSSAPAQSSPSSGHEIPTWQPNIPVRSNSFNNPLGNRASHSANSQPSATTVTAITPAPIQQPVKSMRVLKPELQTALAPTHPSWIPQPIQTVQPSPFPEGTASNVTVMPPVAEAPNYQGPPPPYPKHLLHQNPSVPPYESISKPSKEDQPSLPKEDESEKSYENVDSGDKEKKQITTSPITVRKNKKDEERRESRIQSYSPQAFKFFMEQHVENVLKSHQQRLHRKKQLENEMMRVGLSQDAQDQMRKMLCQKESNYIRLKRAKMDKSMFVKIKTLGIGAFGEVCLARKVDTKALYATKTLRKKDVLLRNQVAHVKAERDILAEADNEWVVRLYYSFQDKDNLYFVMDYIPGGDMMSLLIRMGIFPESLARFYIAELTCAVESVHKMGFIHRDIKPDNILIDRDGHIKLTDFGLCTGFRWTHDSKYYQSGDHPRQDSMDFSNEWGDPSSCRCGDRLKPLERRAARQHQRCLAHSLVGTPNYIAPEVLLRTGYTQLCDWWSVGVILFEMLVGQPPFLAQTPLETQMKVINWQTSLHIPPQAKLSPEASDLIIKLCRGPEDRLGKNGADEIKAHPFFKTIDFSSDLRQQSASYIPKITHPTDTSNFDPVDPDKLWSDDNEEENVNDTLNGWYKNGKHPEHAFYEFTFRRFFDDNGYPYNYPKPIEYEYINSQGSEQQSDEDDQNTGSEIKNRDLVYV
As to the kind of experiment: NanoBRET target engagement assay in transfected HEK-293 cells, LATS1. Particulars: Table 28, NanoBRET, HEK-293 cells; read-out: LATS1 (Cellular) IC50. In kind it is cell-based. The text has this:
The NanoBRET™ assay measures kinase engagement in real time in the context of the intact cell. The assay uses a Kinase-NanoLuc® fusion vector expressing a kinase protein to which a luciferase tag has been added, a cell-permeant fluorescent NanoBRET™ tracer, a NanoLuc® substrate, and an extracellular NanoLuc® inhibitor. Upon expression of the luciferase-tagged kinase, cells will produce a strong BRET signal only in the presence of the NanoBRET™ tracer. The extracellular NanoLuc® inhibitor ensures that the BRET signal observed emanates only from live cells. Because the BRET signal has tight distance constraints, addition of the test compound will decrease the BRET signal if the compound competes with the NanoBRET™ tracer for binding to the kinase domain. Under the appropriate tracer conditions established by the manufacturer, quantitative intracellular affinity and relative potency can then be determined using Mass Action model equations.
HEK-293 cells were purchased from ATCC. FuGENEHD Transfection Reagent, Kinase-NanoLuc® fusion plasmids, Transfection Carrier DNA, NanoBRET™ Tracers and dilution buffer, NanoBRET™ Nano-Glo Substrate, Extracellular NanoLuc® Inhibitor were obtained from Promega.
Assays were conducted following Promega assay protocol with some modifications as described further below. HEK-293 Cells were transiently transfected with Kinase-NanoLuc® Fusion Vector DNA by FuGENE HD Transfection Reagent. Test compounds were delivered into 384 well assay plate by Echo 550 (Labcyte Inc, Sunnyvale, CA). Transfected cells were harvested and mixed with NanoBRET™ Tracer Reagent and dispensed into 384 well plates and incubated at 37° C. in 5% CO2 cell culture incubator for 1 hour. The NanoBRET™ Nano-Glo Substrate plus Extracellular NanoLuc® Inhibitor Solution were added into the wells of the assay plate and incubated for 2-3 minutes at room temperature. The donor emission wavelength (460 nm) and acceptor emission wavelength (600 nm) were measured in the EnVision plate reader. The BRET Ratios were calculated. BRET Ratio=[(Acceptor sample÷Donor sample)−(Acceptor no-tracer control÷Donor no-tracer control)]. The IC50 values of compounds were calculated with Prism GraphPad program.
• 1. Transient Transfection of HEK-293 Cells NanoLuc® Fusion Vector DNA • 1). Cultivate HEK-293 cells (70-80% confluence) appropriately prior to assay. Trypsinize and collect HEK-293 cells. • 2). Prepare lipid: DNA complexes as follows: • a. Prepare a […] solution of DNA in Opti-MEM™ without serum that consists of the following ratios of carrier DNA and DNA encoding NanoLuc® fusion. 9.0 µg/mL of Transfection Carrier DNA, […] of NanoLuc® fusion vector DNA and 1 mL of Opti-MEM™ without phenol red. Mix thoroughly. • b. Add 30 μl of FuGENE HD Transfection Reagent into each milliliter of DNA mixture to form lipid: DNA complex. • c. Mix by inversion 10 times. • d. Incubate at ambient temperature for 20 minutes to allow complexes to form. • 3). In a sterile, conical tube, mix 1 part of lipid: DNA complex with 20 parts of HEK-293 cells in suspension. Mix gently by inversion 5 times. • 4). Dispense cells+lipid: DNA complex into a sterile tissue culture dish and incubate for 22-24 hours. • 2. Addition of Test Compounds (dry plate shooting): Each test compound is delivered from the compound source plate to the wells of 384-well white NBS plate by Echo 550. • 3. Preparation of Cells with NanoBRET™ Tracer Reagent • 1). Remove medium from dish with transfected HEK-293 cells via aspiration, trypsinize and allow cells to dissociate from the dish. • 2). Neutralize trypsin using medium containing serum and centrifuge at 200× g for 5 minutes to pellet the cells. Adjust the cell density to 2×10^5 cells/mL in Opti-MEM™ without phenol red. • 3). Prepare Complete 20× NanoBRET™ Tracer Reagent with Tracer Dilution Buffer. • 4). Dispense one part of Complete 20× NanoBRET™ Tracer Reagent to 20 parts of cells in the tube. Mix gently by inversion 10 times. • 5). […]
(In general: In BRET a luciferase serves as donor, and the signal depends on an acceptor being close.)

SMILES strings stand for the structures.

Turning to `Cc1cc(-c2ccnc3[nH]cc(F)c23)ccc1CN` [Compound 211, (4-(3-fluoro-1H-pyrrolo[2,3-b]pyridin-4-yl)-2-methylphenyl) methanamine], the IC50 amounted to 6.37 µM.

Take `NCc1ccc(-c2ccnc3[nH]cc(-c4ccccc4)c23)cc1-c1ccccc1` [Compound 219, (5-(3-phenyl-1H-pyrrolo[2,3-b]pyridin-4-yl)-[1,1′-biphenyl]-2-yl)methanamine]: the IC50 amounted to 0.653 µM.

Consider `COC(=O)c1c[nH]c2nccc(-c3ccc(CN)cc3)c12` [Compound 223, methyl 4-(4-(aminomethyl)phenyl)-1H-pyrrolo[2,3-b]pyridine-3-carboxylate], for which the IC50 was 66.8 µM.

Turning to `Cc1cccc(-c2c[nH]c3nccc(-c4ccc(CN)cc4)c23)c1` [Compound 230, (4-(3-(m-tolyl)-1H-pyrrolo[2,3-b]pyridin-4-yl)phenyl) methanamine], the IC50 amounted to 5.47 µM.

For `CC(C)(N)c1ccc(-c2ccnc3[nH]cc(F)c23)cc1` [Compound 238, 2-(4-(3-fluoro-1H-pyrrolo[2,3-b]pyridin-4-yl)phenyl)propan-2-amine], the IC50 came to 1.56 µM.

`NCc1ccc(-c2ccnc3[nH]cc(-c4cccnc4)c23)cc1` [Compound 245, (4-(3-(pyridin-3-yl)-1H-pyrrolo[2,3-b]pyridin-4-yl)phenyl) methanamine]: the IC50 was 11.9 µM.

With `NCc1ccc(-c2ccnc3[nH]cc(-c4ccccc4)c23)cc1` [Compound 253, (4-(3-phenyl-1H-pyrrolo[2,3-b]pyridin-4-yl)phenyl) methanamine], the half-maximal inhibitory concentration (IC50) came out at 2.98 µM.

With `Cc1cc(-c2ccnc3[nH]cc(Cl)c23)ccc1CN` [Compound 254, (4-(3-chloro-1H-pyrrolo[2,3-b]pyridin-4-yl)-2-methylphenyl) methanamine], the IC50 stood at 0.714 µM.

With `Cc1cc(-c2ccnc3[nH]ccc23)ccc1CN` [Compound 266, (2-methyl-4-(1H-pyrrolo[2,3-b]pyridin-4-yl)phenyl) methanamine], the IC50 was 6.71 µM.

For the compound `c1cc(-c2ccc3c(c2)CCNC3)c2cc[nH]c2n1` [Compound 267, 6-(1H-pyrrolo[2,3-b]pyridin-4-yl)-1,2,3,4-tetrahydroiso-quinoline], the IC50 is greater than 50 µM.

With `c1cc(-c2ccc(C3CCCCN3)cc2)c2cc[nH]c2n1` (stereo not drawn) [Compound 271, 4-(4-(piperidin-2-yl)phenyl)-1H-pyrrolo[2,3-b]pyridine], the IC50 is greater than 50 µM.

As for `NCc1ccc(-c2ccnc3[nH]cc(F)c23)cc1` [Compound 275, (4-(3-fluoro-1H-pyrrolo[2,3-b]pyridin-4-yl)phenyl) methanamine], the IC50 was 10.1 µM.

For the compound `NCc1ccc(-c2ccnc3[nH]cc(Cl)c23)cc1` [Compound 276, (4-(3-chloro-1H-pyrrolo[2,3-b]pyridin-4-yl)phenyl) methanamine], the IC50 was determined as 2.83 µM.

Consider `NCc1ccc(-c2ccnc3[nH]ccc23)cc1C(F)(F)F` [Compound 284, (4-(1H-pyrrolo[2,3-b]pyridin-4-yl)-2-(trifluoromethyl)phenyl) methanamine], for which the IC50 was determined as 34.8 µM.

As to `NCc1ccc(-c2ccnc3[nH]ccc23)cc1` [Compound 287, (4-(1H-pyrrolo[2,3-b]pyridin-4-yl)phenyl) methanamine], the half-maximal inhibitory concentration (IC50) was determined as 22.8 µM.

`Cc1cc(-c2ccnc3[nH]cc(F)c23)cc(F)c1[C@@]1(O)[C@H](C)CN(C)C[C@@H]1C` [Compound 304, (3S,4s,5R)-4-(2-fluoro-4-(3-fluoro-1H-pyrrolo[2,3-b]pyridin-4-yl)-6-methylphenyl)-1,3,5-trimethylpiperidin-4-ol]: the IC50 is 0.0417 µM.

For the compound `Cc1cc(-c2ccnc3[nH]cc(F)c23)cc(F)c1[C@@]1(O)[C@H](C)CN(C(C)C)C[C@@H]1C` [Compound 305, (3S,4s,5R)-4-(2-fluoro-4-(3-fluoro-1H-pyrrolo[2,3-b]pyridin-4-yl)-6-methylphenyl)-1-isopropyl-3,5-dimethylpiperidin-4-ol], the IC50 is 0.0622 µM.

On to `COC(=O)c1c[nH]c2nccc(-c3cc(C)c([C@@]4(O)[C@H](C)CN(C5CCS(=O)(=O)CC5)C[C@@H]4C)c(F)c3)c12` [Compound 309, methyl 4-(4-((3S,4s,5R)-1-(1,1-dioxidotetrahydro-2H-thiopyran-4-yl)-4-hydroxy-3,5-dimethylpiperidin-4-yl)-3-fluoro-5-methylphenyl)-1H-pyrrolo[2,3-b]pyridine-3-carboxylate], for which the IC50 came out at 1.35 µM.

Take `COC(=O)c1c[nH]c2nccc(-c3cc(C)c([C@@]4(O)[C@H](C)CN(C(=O)CN)C[C@@H]4C)c(F)c3)c12` [Compound 310, methyl 4-(3-fluoro-4-((3S,4s,5R)-1-glycyl-4-hydroxy-3,5-dimethylpiperidin-4-yl)-5-methylphenyl)-1H-pyrrolo[2,3-b]pyridine-3-carboxylate]: the IC50 came to 4.59 µM.

For the compound `Cc1cc(-c2ccnc3[nH]cc(F)c23)cc(F)c1[C@@]1(O)[C@H](C)CN(C(=O)[C@H](N)CO)C[C@@H]1C` [Compound 312, (R)-2-amino-1-((3S,4R,5R)-4-(2-fluoro-4-(3-fluoro-1H-pyrrolo[2,3-b]pyridin-4-yl)-6-methylphenyl)-4-hydroxy-3,5-dimethylpiperidin-1-yl)-3-hydroxypropan-1-one], the IC50 came out at 0.0104 µM.

For the compound `Cc1cc(-c2ccnc3[nH]cc(F)c23)cc(F)c1[C@@]1(O)[C@H](C)CN(C(=O)[C@@H](CO)N(C)C)C[C@@H]1C` [Compound 313, (R)-2-(dimethylamino)-1-((3S,4S,5R)-4-(2-fluoro-4-(3-fluoro-1H-pyrrolo[2,3-b]pyridin-4-yl)-6-methylphenyl)-4-hydroxy-3,5-dimethylpiperidin-1-yl)-3-hydroxypropan-1-one], the IC50 was found to be 0.043 µM.
